Structures are written as SMILES. Read-outs that look alike come from different tables or passages of the source.

Format in all cases: biochemical
One test concerns the target T1, DYRK1A (Homo sapiens, UniProt Q13627).
T1 construct: purchased Carna Biosciences, Inc. 04-130
The experiment in a line: Inhibition test on activity of DYRK family, mobility shift assay (MSA): DYRK1A. The procedure, abridged: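 Mobility shift assay with recombinant DYRK1A (0.2 ng/μL enzyme solution), FITC-DYRKtide substrate (4 μM in substrate mix), 100 μM ATP in substrate mix, HEPES pH 7.5 buffer with MgCl2; 1 h at room temperature. Phosphorylated vs unphosphorylated peptide peaks quantified; IC50 from regression of inhibition rate against log concentration.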

The next test concerns the target T2, DYRK1B (Homo sapiens, UniProt Q9Y463).
T2 construct: purchased Carna Biosciences, Inc. 04-131
The experiment in a line: Inhibition test on activity of DYRK family, mobility shift assay (MSA): DYRK1B. Here is the method: [Inhibition Test on Activity of DYRK Family (DYRK1A, DYRK1B, DYRK2, and DYRK3)]
The kinase activity was measured by mobility shift assay (MSA) method using QuickScout Screening Assist™ MSA (commercially available kit manufactured by Carna Biosciences, Inc.). The substrate of the kinase reaction used was an FITC-labeled DYRKtide peptide included in the kit. An assay buffer [20 mM HEPES, 0.01% Triton X-100™, 2 mM dithiothreitol, pH 7.5]was used to create a substrate mixture solution with a substrate (4 μM), MgCl2(20 mM), and ATP (DYRK1A: 100 μM; DYRK1B: 200 μM; DYRK2: 40 μM; and DYRK3: 20 μM). In addition, kinases (DYRK1A: manufactured by Carna Biosciences, Inc., Cat. No. 04-130; DYRK1B: manufactured by Carna Biosciences, Inc., Cat. No. 04-131; DYRK2; manufactured by Carna Biosciences, Inc., Cat. No. 04-132; and DYRK3; manufactured by Carna Biosciences, Inc., Cat. No. 04-133) were diluted with the assay buffer to prepare enzyme solutions (DYRK1A: 0.2 ng/μL; DYRK1B: 0.08 ng/μL; DYRK2: 0.04 ng/μL; and DYRK3: 0.25 ng/μL). The 10 mM solution of the test compound in DMSO was further diluted with DMSO to 10 levels of the concentration (0.00003 mM, 0.0001 mM, 0.0003 mM, 0.001 mM, 0.003 mM, 0.01 mM, 0.03 mM, 0.1 mM, 0.3 mM, and 1 mM), each of which was subjected to 25-fold dilution with the assay buffer to obtain a drug solution (4% DMSO solution). 5 μL of the drug solution or a control solution (4% DMSO-assay buffer), 5 μL of the substrate mixture solution, and 10 μL of the enzyme solution were mixed in the wells of a polypropylene 384-well plate and allowed to react at room temperature for 1 hour, and then the reaction was quenched by adding 60 μL of the termination buffer included in the kit. Subsequently, the quantities of the substrates (S) and the phosphorylated substrate (P) in the reaction solution were measured using LabChip EZ Reader II system (manufactured by Caliper Life Sciences) according to the protocol of the assay kit.
The heights of the peaks of the “substrate” and the “phosphorylated substrate” were expressed as S and P, respectively, and a blank containing the assay buffer instead of the enzyme solution was also measured.
The inhibition rate (%) of the test compound was calculated according to the following equation:
Inhibition rate (%)=(1−(C−A)/(B−A))×100 • wherein, A, B, and C represent P/(P+S) of the blank well, P/(P+S) of the control solution well, and P/(P+S) of the compound-containing well, respectively.
The IC50 value was calculated via a regression analysis of the inhibition rate and the test compound concentration (logarithmic value).
The inhibiting activities of representative compounds of the present invention are shown against DYRK1A, DYRK1B, DYRK2, and DYRK3 in Tables.

Another test concerns the target T3, DYRK2 (Homo sapiens, UniProt Q92630).
T3 construct: purchased Carna Biosciences, Inc. 04-132
T3 sequence (Q92630 74-601 limits assumed): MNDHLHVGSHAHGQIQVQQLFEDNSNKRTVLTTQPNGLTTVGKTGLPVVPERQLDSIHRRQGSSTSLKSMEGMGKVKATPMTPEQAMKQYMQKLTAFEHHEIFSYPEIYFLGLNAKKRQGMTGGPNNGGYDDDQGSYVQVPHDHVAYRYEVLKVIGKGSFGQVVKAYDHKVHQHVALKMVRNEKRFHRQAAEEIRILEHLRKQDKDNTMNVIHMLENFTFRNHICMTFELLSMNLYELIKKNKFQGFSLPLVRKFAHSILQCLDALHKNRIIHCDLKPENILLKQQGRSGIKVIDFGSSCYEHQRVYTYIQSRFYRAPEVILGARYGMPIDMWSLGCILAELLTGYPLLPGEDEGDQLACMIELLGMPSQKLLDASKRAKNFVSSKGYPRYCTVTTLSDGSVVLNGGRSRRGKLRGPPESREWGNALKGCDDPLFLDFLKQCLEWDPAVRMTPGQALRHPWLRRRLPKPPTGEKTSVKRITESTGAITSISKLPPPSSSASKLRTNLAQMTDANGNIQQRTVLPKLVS
The test can be described thus: Inhibition test on activity of DYRK family, mobility shift assay (MSA): DYRK2. An outline of the steps: (§1)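 Mobility-shift readout of FITC-DYRKtide phosphorylation in 20 mM HEPES pH 7.5. The substrate mix held 4 µM peptide, 20 mM MgCl2 and ATP at 100 (1A), 200 (1B), 40 (2) or 20 µM (3). Reaction 1 h at room temperature; IC50 from regression of P/(P+S)-based inhibition vs log concentration.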

Another test deals with T4, DYRK3 (Homo sapiens, UniProt O43781).
T4 construct: purchased Carna Biosciences, Inc. 04-133
T4 sequence (O43781 1-568 isoform O43781-2): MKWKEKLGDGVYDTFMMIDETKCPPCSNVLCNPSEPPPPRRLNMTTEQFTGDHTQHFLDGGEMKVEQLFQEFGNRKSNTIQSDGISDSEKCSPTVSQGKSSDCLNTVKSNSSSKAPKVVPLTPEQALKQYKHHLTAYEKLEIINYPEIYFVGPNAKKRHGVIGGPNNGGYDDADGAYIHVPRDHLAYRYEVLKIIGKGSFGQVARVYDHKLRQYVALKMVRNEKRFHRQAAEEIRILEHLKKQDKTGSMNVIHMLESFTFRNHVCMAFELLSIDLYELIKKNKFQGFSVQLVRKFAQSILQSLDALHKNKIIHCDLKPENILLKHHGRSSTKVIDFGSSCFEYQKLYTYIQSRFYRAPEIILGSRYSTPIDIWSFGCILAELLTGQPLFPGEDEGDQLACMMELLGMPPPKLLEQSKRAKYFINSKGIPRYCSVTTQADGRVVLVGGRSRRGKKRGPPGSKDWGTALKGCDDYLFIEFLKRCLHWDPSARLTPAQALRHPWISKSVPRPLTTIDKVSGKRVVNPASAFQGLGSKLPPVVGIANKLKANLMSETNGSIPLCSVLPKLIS
The test can be described thus: Inhibition test on activity of DYRK family, mobility shift assay (MSA): DYRK3. An outline of the steps: as §1

[1] abbreviates: read-out: Inhibitory activity DYRK 1A.
Setting [2] is: read-out: Inhibitory activity DYRK 2.
[3] abbreviates: read-out: Inhibitory activity DYRK 3.
Where [4] appears, read: MSA, FITC-labeled DYRKtide peptide, ATP 100 μM, read-out: Inhibitory activity DYRK 1A (IC50 class).
Where [5] appears, read: MSA, FITC-labeled DYRKtide peptide, ATP 200 μM, read-out: Inhibitory activity DYRK 1B (IC50 class).
Setting [6] is: MSA, FITC-labeled DYRKtide peptide, ATP 40 μM, read-out: Inhibitory activity DYRK 2 (IC50 class).
Where [7] appears, read: MSA, FITC-labeled DYRKtide peptide, ATP 20 μM, read-out: Inhibitory activity DYRK 3 (IC50 class).

T2 sequence (Q9Y463 whole entry): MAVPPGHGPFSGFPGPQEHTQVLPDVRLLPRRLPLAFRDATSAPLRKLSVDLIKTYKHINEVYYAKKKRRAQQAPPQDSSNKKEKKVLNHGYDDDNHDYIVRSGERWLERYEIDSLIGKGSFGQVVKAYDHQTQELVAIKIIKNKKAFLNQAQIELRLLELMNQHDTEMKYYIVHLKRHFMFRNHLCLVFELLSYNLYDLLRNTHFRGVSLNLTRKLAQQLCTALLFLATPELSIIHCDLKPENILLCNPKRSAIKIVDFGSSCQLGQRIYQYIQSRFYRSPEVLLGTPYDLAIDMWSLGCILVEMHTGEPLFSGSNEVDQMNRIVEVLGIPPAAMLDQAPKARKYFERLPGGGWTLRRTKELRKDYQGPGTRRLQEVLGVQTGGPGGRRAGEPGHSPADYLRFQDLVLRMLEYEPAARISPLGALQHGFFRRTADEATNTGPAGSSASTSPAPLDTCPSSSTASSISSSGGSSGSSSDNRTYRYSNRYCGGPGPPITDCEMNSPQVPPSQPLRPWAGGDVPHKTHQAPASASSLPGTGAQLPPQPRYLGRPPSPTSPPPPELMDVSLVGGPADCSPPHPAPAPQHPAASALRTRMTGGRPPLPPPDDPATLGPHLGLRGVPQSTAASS

For `O=C1N[C@H]2COC[C@H]2N1c1nc2c3c(ccc2s1)OCC3` [Example 119], the IC50 on DYRK1A (setting [1]), at DYRK1B (read-out: Inhibitory activity DYRK 1B), on DYRK2 (setting [2]) and on DYRK3 (setting [3]) was 10 to 100 nM in each case.

For `O=C1NC2CNCC2N1c1nc2c3c(ccc2s1)OCC3` (centres unmarked) [Example 3], the IC50 at DYRK1A (setting [4]) is 100 to 1000 nM; on DYRK1B (setting [5]) it was 100 to 1000 nM; at DYRK2 (setting [6]) it was at least 1000 nM; on DYRK3 (setting [7]), 100 to 1000 nM.

For the molecule `O=C1N[C@H]2CO[C@H](CO)[C@H]2N1c1nc2c3c(ccc2s1)OCC3` [Example 157, (3aR,6S,6aS)-1-(7,8-dihydrofuro[3,2-e][1,3]benzothiazol-2-yl)-6-(hydroxymethyl)tetrahydro-1H-furo[3,4-d]imidazol-2(3H)-one], the IC50 on DYRK1B (setting [5]) is 10 to 100 nM; on DYRK2 (setting [6]), 100 to 1000 nM; on DYRK3 (setting [7]) it was 100 to 1000 nM.

For the molecule `N#CC[C@H]1OC[C@@H]2NC(=O)N(c3nc4c5c(ccc4s3)OCC5)[C@@H]21` [Example 162, [(3aS,4R,6aR)-3-(7,8-Dihydrofuro[3,2-e][1,3]benzothiazol-2-yl)-2-oxohexahydro-1H-furo[3,4-d]imidazol-4-yl]acetonitrile], the IC50 on DYRK1B (setting [5]) is 10 to 100 nM; at DYRK2 (setting [6]), 100 to 1000 nM; on DYRK3 (setting [7]), 100 to 1000 nM.

On to `N#C[C@H]1C[C@@H]2[C@H](CO1)NC(=O)N2c1nc2c3c(ccc2s1)OCO3` [Example 131, (3aR,6R,7aR)-1-(2H-[1,3]dioxolo[4,5-e][1,3]benzothiazol-7-yl)-2-oxooctahydropyrano[3,4-d]imidazole-6-carbonitrile], for which the IC50 at DYRK1A (setting [1]) is under 10 nM; on DYRK2 (setting [2]), 100 to 1000 nM; on DYRK3 (setting [3]) it was 100 to 1000 nM.

With `C[C@H]1[C@@H]2[C@H](CCN1C)NC(=O)N2c1nc2c3c(ccc2s1)OCC3` [Example 94], the figures for the IC50 at DYRK1A (setting [1]), on DYRK2 (setting [2]) and at DYRK3 (setting [3]) were 100 to 1000 nM, at least 1000 nM and at least 1000 nM, respectively.

For the molecule `CN1C[C@@H]2[C@H](CC13CC3)NC(=O)N2c1nc2c3c(ccc2s1)OCC3` [Example 90], the IC50 at DYRK1A (setting [4]) was 10 to 100 nM; at DYRK2 (setting [6]), 100 to 1000 nM; on DYRK3 (setting [7]), 100 to 1000 nM.

On to `O=C1N[C@H]2CCN(CC(F)F)C[C@H]2N1c1nc2c3c(ccc2s1)OCC3` (racemic) [Example 108, rac-(3aR,7aS)-5-(2,2-difluoroethyl)-3-(7,8-dihydrofuro[3,2-e][1,3]benzothiazol-2-yl)octahydro-2H-imidazo[4,5-c]pyridin-2-one], for which the IC50 was 10 to 100 nM at DYRK1A (setting [1]), at least 1000 nM at DYRK2 (setting [2]) and at least 1000 nM at DYRK3 (setting [3]).

Regarding `O=C1N[C@H]2CO[C@@H](CO)C[C@H]2N1c1nc2c3c(ccc2s1)OCC3` [Example 144, (3aR,6R,7aR)-1-(7,8-dihydrofuro[3,2-e][1,3]benzothiazol-2-yl)-6-(hydroxymethyl)hexahydropyrano[3,4-d]imidazol-2(3H)-one], the IC50 on DYRK1A (setting [4]) is under 10 nM; on DYRK2 (setting [6]) it was at least 1000 nM; at DYRK3 (setting [7]) it was 100 to 1000 nM.

Regarding `O=C1N[C@H]2CNCC[C@H]2N1c1nc2c3c(ccc2s1)OCCO3` [Example 51], the IC50 is 10 to 100 nM at DYRK1A (setting [4]), 100 to 1000 nM on DYRK2 (setting [6]) and 100 to 1000 nM at DYRK3 (setting [7]).

For `C[C@H]1C[C@@H]2[C@H](CN1C)NC(=O)N2c1nc2c3c(ccc2s1)OCC3` [Example 93, (3aS,6S,7aR)-1-(7,8-dihydrofuro[3,2-e][1,3]benzothiazol-2-yl)-5,6-dimethyloctahydro-2H-imidazo[4,5-c]pyridin-2-one], the IC50 on DYRK1A (setting [1]) is 10 to 100 nM; at DYRK2 (setting [2]), at least 1000 nM; on DYRK3 (setting [3]) it was 100 to 1000 nM.

For the molecule `N#CCN1CC[C@@H]2NC(=O)N(c3nc4c5c(ccc4s3)OCC5)[C@@H]2C1` (single isomer, unassigned) [Example 112], the IC50 on DYRK1A (setting [1]) was under 10 nM; on DYRK2 (setting [2]), at least 1000 nM; on DYRK3 (setting [3]), 100 to 1000 nM.

In the case of `O=C1N[C@H]2CCNC[C@H]2N1c1nc2c3c(ccc2s1)OCC3` (relative stereo) [Example 1, cis-3-(7,8-Dihydrofuro[3,2-e][1,3]benzothiazol-2-yl)octahydro-2H-imidazo[4,5-c]pyridin-2-one], the IC50 on DYRK1A (setting [4]) was 10 to 100 nM; at DYRK2 (setting [6]), at least 1000 nM; on DYRK3 (setting [7]), 100 to 1000 nM.

For `N#CCN1CC[C@H]2NC(=O)N(c3nc4c5c(ccc4s3)OCC5)[C@H]2C1` (single isomer, unassigned) [Example 111], the IC50 on DYRK1A (setting [1]) was 100 to 1000 nM; on DYRK2 (setting [2]), at least 1000 nM; at DYRK3 (setting [3]), at least 1000 nM.

Consider `O=C1NC2CCN(C3CC3)CC2N1c1nc2c3c(ccc2s1)OCO3` (centres unmarked) [Example 32], for which the results for the IC50 at DYRK1A (setting [4]), on DYRK2 (setting [6]) and on DYRK3 (setting [7]) were under 10 nM, at least 1000 nM and at least 1000 nM, respectively.

For `O=C1N[C@H]2CC3(CC3)NC[C@H]2N1c1nc2c3c(ccc2s1)OCC3` [Example 57], the IC50 on DYRK1A (setting [4]) was 100 to 1000 nM; on DYRK2 (setting [6]), at least 1000 nM; at DYRK3 (setting [7]), 100 to 1000 nM.

For `N#C[C@H]1C[C@H]2NC(=O)N(c3nc4c5c(ccc4s3)OCO5)[C@H]2CO1` [Example 132], the IC50 at DYRK1A (setting [1]), at DYRK2 (setting [2]) and at DYRK3 (setting [3]) was at least 1000 nM throughout.

The values above are taken from patent publication US20230365589A1, “NOVEL AMINE DERIVATIVES” (Sumitomo Pharma Co., Ltd., priority 2020, published 2023).
